Measured values reported in patent US9993494B2, “Compositions and methods for treating fibrotic disease” (eFFECTOR Therapeutics, Inc., priority 2014, dated 2018).

System: normal human lung fibroblasts
Experiment: Ribosomal profiling: translational efficiency in TGFβ-treated fibroblasts
Type: cell-based
Outline: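 Cells lysed on ice after a cold PBS wash containing cycloheximide. Ribosome-protected fragments and total mRNA were prepared with the ARTseq kit and sequenced by RNA-Seq. Reads were trimmed, mapped to the human genome and counted uniquely over coding regions per gene, with low-count genes excluded before differential translational-efficiency analysis.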

TGFβ
Log2 TE RPS20 (ENSG00000008988, 5 replicates): 1.435 | change in translational profile of DNASE1L1 caused by TGFβ (ENSG00000013563, Control vs. TGFβ): D (D = <1.0 to 1.5) | Log2 TE VIM (ENSG00000026025, 5 replicates): 1.002 | Log2 TE ARHGAP6 (ENSG00000047648, 5 replicates): −1.082 | Log2 TE KITLG (ENSG00000049130, 5 replicates): −2.027 | change in translational profile of KITLG caused by TGFβ (ENSG00000049130, Control vs. TGFβ): A (A = <−2.5) | Log2 TE ADAMTS6 (ENSG00000049192, 5 replicates): 2.863 | change in translational profile of ADAMTS6 caused by TGFβ (ENSG00000049192, Control vs. TGFβ): F (F = >2.5) | Log2 TE LETMD1 (ENSG00000050426, 5 replicates): 1.27 | change in translational profile of LETMD1 caused by TGFβ (ENSG00000050426, Control vs. TGFβ): D (D = <1.0 to 1.5) | change in translational profile of PLEKHA5 caused by TGFβ (ENSG00000052126, Control vs. TGFβ): C (C = <−1.0 to −1.5) | Log2 TE LAMA3 (ENSG00000053747, 5 replicates): −1.233 | Log2 TE SYNE2 (ENSG00000054654, 5 replicates): −1.793 | change in translational profile of EIF4B caused by TGFβ (ENSG00000063046, Control vs. TGFβ): E (E = <1.5 to 2.5) | Log2 TE RPL18 (ENSG00000063177, 5 replicates): 1.612 | change in translational profile of RPL18 caused by TGFβ (ENSG00000063177, Control vs. TGFβ): E (E = <1.5 to 2.5) | Log2 TE LIMCH1 (ENSG00000064042, 5 replicates): −1.222 | change in translational profile of HIPK2 caused by TGFβ (ENSG00000064393, Control vs. TGFβ): C (C = <−1.0 to −1.5) | Log2 TE ASPM (ENSG00000066279, 5 replicates): −2.175 | change in translational profile of ASPM caused by TGFβ (ENSG00000066279, Control vs. TGFβ): A (A = <−2.5) | change in translational profile of RASSF1 caused by TGFβ (ENSG00000068028, Control vs. TGFβ): D (D = <1.0 to 1.5) | Log2 TE PABPC1 (ENSG00000070756, 5 replicates): 1.207 | change in translational profile of PABPC1 caused by TGFβ (ENSG00000070756, Control vs. TGFβ): D (D = <1.0 to 1.5) | Log2 TE RPL31 (ENSG00000071082, 5 replicates): 1.6 | change in translational profile of RPL31 caused by TGFβ (ENSG00000071082, Control vs. TGFβ): E (E = <1.5 to 2.5) | Log2 TE PLD1 (ENSG00000075651, 5 replicates): −1.032 | change in translational profile of PLD1 caused by TGFβ (ENSG00000075651, Control vs. TGFβ): B (B = <−1.5 to −2.5) | Log2 TE SNRPA (ENSG00000077312, 5 replicates): 1.462 | change in translational profile of EDN1 caused by TGFβ (ENSG00000078401, Control vs. TGFβ): E (E = <1.5 to 2.5) | Log2 TE CDC14B (ENSG00000081377, 5 replicates): −1.331 | Log2 TE RPS5 (ENSG00000083845, 5 replicates): 1.533 | Log2 TE AURKA (ENSG00000087586, 5 replicates): −1.736 | change in translational profile of AURKA caused by TGFβ (ENSG00000087586, Control vs. TGFβ): B (B = <−1.5 to −2.5) | Log2 TE EPB41L1 (ENSG00000088367, 5 replicates): 1.018 | change in translational profile of EPB41L1 caused by TGFβ (ENSG00000088367, Control vs. TGFβ): D (D = <1.0 to 1.5) | Log2 TE ARHGAP28 (ENSG00000088756, 5 replicates): −1.024 | Log2 TE RPL6 (ENSG00000089009, 5 replicates): 1.107 | change in translational profile of RPL6 caused by TGFβ (ENSG00000089009, Control vs. TGFβ): D (D = <1.0 to 1.5) | change in translational profile of P2RX7 caused by TGFβ (ENSG00000089041, Control vs. TGFβ): B (B = <−1.5 to −2.5) | change in translational profile of KDM2B caused by TGFβ (ENSG00000089094, Control vs. TGFβ): C (C = <−1.0 to −1.5) | change in translational profile of RPLP0 caused by TGFβ (ENSG00000089157, Control vs. TGFβ): D (D = <1.0 to 1.5) | Log2 TE IGBP1 (ENSG00000089289, 5 replicates): 1.266 | change in translational profile of IGBP1 caused by TGFβ (ENSG00000089289, Control vs. TGFβ): E (E = <1.5 to 2.5) | Log2 TE GRAMD1A (ENSG00000089351, 5 replicates): 1.069 | Log2 TE IRAK3 (ENSG00000090376, 5 replicates): −1.017 | change in translational profile of IRAK3 caused by TGFβ (ENSG00000090376, Control vs. TGFβ): C (C = <−1.0 to −1.5) | change in translational profile of PABPC4 caused by TGFβ (ENSG00000090621, Control vs. TGFβ): D (D = <1.0 to 1.5) | Log2 TE FMO2 (ENSG00000094963, 5 replicates): −2.146 | change in translational profile of FMO2 caused by TGFβ (ENSG00000094963, Control vs. TGFβ): A (A = <−2.5) | Log2 TE ACOT7 (ENSG00000097021, 5 replicates): 1.011 | change in translational profile of ACOT7 caused by TGFβ (ENSG00000097021, Control vs. TGFβ): D (D = <1.0 to 1.5) | change in translational profile of ATP5D caused by TGFβ (ENSG00000099624, Control vs. TGFβ): D (D = <1.0 to 1.5) | change in translational profile of LGALS1 caused by TGFβ (ENSG00000100097, Control vs. TGFβ): D (D = <1.0 to 1.5) | Log2 TE EIF3L (ENSG00000100129, 5 replicates): 1.429 | change in translational profile of EIF3L caused by TGFβ (ENSG00000100129, Control vs. TGFβ): D (D = <1.0 to 1.5) | Log2 TE RPL3 (ENSG00000100316, 5 replicates): 1.78 | change in translational profile of RPL3 caused by TGFβ (ENSG00000100316, Control vs. TGFβ): E (E = <1.5 to 2.5) | Log2 TE TIMM9 (ENSG00000100575, 5 replicates): 1.113
